Common to all, as to experiment: MIC determination by agar dilution (Mueller Hinton Agar)
Format in all cases: cell-based

The test system of one assay is Citrobacter freundii. The conditions noted are these: Culture Number 3507, 35° C., 20 hours, read-out: Minimum Inhibitory Concentration. The protocol: (§1) The compounds of this invention and their respective pharmaceutically acceptable salts have antibiotic activity against a variety of gram-negative bacteria including Escherichia coli, Klebsiella pneumoniae and Pseudomonas aeruginosa. The compounds are useful for treating bacterial infections in animals, including and most preferably humans. Compounds of the invention are tested for in vitro antimicrobial activity using standard testing procedures such as the determination of minimum inhibitory concentration (MIC) by methods described in "Methods for Dilution Antimicrobial Susceptibility Tests for Bacteria That Grow Aerobically" (M7-A) Published December 1985 by the National Committee for Clinical Laboratory standards, 771 East Lancaster Avenue, Villanova, Pa., 19084. Briefly, MIC values are determined in unsupplemented Mueller Hinton Agar (MHA). The compounds tested are diluted serially into molten MHA at 47° C. The agar is poured into petri dishes and allowed to harden. The various bacteria used for testing are grown overnight on MHA at 35° C. and transferred to Tryptiease Soy Broth (TSB) until a turbidity of 0.5 McFarland standard is obtained. The bacteria are diluted one to twenty in TSB and inoculated on the plates (1 μl using a Steers replicator). […] The MIC test results of four typical compounds of this invention.

The next assay has as its system Enterobacter cloacae. The conditions noted are these: 20 h, read-out: Minimum Inhibitory Concentration. The protocol:
as §1

For a further assay, the system named is Escherichia coli. The following applies: 20 h, read-out: Minimum Inhibitory Concentration. The procedure: as §1
A further assay has as its system Klebsiella oxytoca. The conditions noted are these: 20 h, read-out: Minimum Inhibitory Concentration. The procedure: as §1
For a further assay, the system named is Klebsiella pneumoniae. The following applies: Culture Number 58, 35° C., 20 hours, read-out: Minimum Inhibitory Concentration. The protocol:
as §1

For another assay, the system named is Proteus vulgaris. The conditions noted are these: Culture Number 9679, 35° C., 20 hours, read-out: Minimum Inhibitory Concentration. The procedure: as §1
Another assay has as its system Pseudomonas aeruginosa. The following applies: 20 h, read-out: Minimum Inhibitory Concentration. The protocol: as §1
The test system of another assay is Serratia marcescens. The following applies: Culture Number 6888, 35° C., 20 hours, read-out: Minimum Inhibitory Concentration. The protocol:
as §1

The subject of the next assay is Staphylococcus aureus. The following applies: 35° C., 20 hours; for MIC: Staphylococcus aureus, read-out: Minimum Inhibitory Concentration. The procedure:
as §1

The subject of a further assay is Staphylococcus epidermis. The conditions noted are these: Culture Number 30031, 35° C., 20 hours, read-out: Minimum Inhibitory Concentration. The protocol: as §1
Another assay concerns Streptococcus faecalis. The following applies: Enterococcus faecalis, 35° C., 20 hours, read-out: Minimum Inhibitory Concentration. The procedure: as §1
For the next assay, the system named is Streptococcus pneumoniae. The following applies: Culture Number 41, 35° C., 20 hours, read-out: Minimum Inhibitory Concentration. The protocol:
as §1

The next assay concerns Streptococcus pyogenes. The conditions noted are these: Culture Number 152, 35° C., 20 hours, read-out: Minimum Inhibitory Concentration. The protocol: as §1
The subject of another assay is Acinetobacter sp. The conditions noted are these: Culture Number 30278, 35° C., 20 hours, read-out: Minimum Inhibitory Concentration. The procedure:
as §1

For assay [1], the system named is Acinetobacter calcoaceticus. The conditions noted are these: Culture Number 12170, 35° C., 20 hours, read-out: Minimum Inhibitory Concentration. The protocol:
as §1

≈ marks a conversion by molar mass, not a printed value. Where two headings read alike, the source gives them in different places. Where only a bound is given, the exact number is not on record here.

On to `CC(C)(O/N=C(\C(=O)N[C@H]1CN(C(=O)NS(=O)(=O)N[C@H]2CN(C(=O)c3cc(=O)c(O)c[nH]3)NC2=O)C1=O)c1csc(N)n1)C(=O)O` [60(b), 3(S)-3-[2-(2-Amino-4-thiazoyl)-Z-(2)-(carboxyisopropyloxyimino)acetamido]-1-[(3-hydroxy-4-pyridon-6-yl)-1-carbonyl-pyrazolidinone-4-(S)-amino]-sulfonyl-amino-carbonyl-2-azetidinone], for which the MIC was 0.03 µg/mL (≈ 0.0438 µM) in the assay with Citrobacter freundii; 8 µg/mL (≈ 11.7 µM) in the assay with Enterobacter cloacae (Culture Number 9381, 35° C.); 1 µg/mL (≈ 1.46 µM) with Enterobacter cloacae (Culture Number 9382, 35° C.); less than 0.008 µg/mL in the assay on Escherichia coli (Culture Number 9379, 35° C.); less than 0.008 µg/mL in the assay on Escherichia coli (Culture Number 9380, 35° C.); less than 0.008 µg/mL in the assay with Escherichia coli (Culture Number 9451, 35° C.). In addition, the MIC in the assay with Klebsiella oxytoca (Culture Number 9383, 35° C.) was 0.125 µg/mL (≈ 0.183 µM); in the assay on Klebsiella oxytoca (Culture Number 9384, 35° C.) it was 0.06 µg/mL (≈ 0.0876 µM); in the assay on Klebsiella pneumoniae it was 0.5 µg/mL (≈ 0.73 µM); in the assay with Proteus vulgaris, 0.06 µg/mL (≈ 0.0876 µM); in the assay on Pseudomonas aeruginosa (Culture Number 231, 35° C.), 0.25 µg/mL (≈ 0.365 µM); in the assay on Pseudomonas aeruginosa (Culture Number 9191, 35° C.), 0.25 µg/mL (≈ 0.365 µM). Further, the MIC with Serratia marcescens was 0.03 µg/mL (≈ 0.0438 µM); in the assay on Staphylococcus aureus (Culture Number 9218), greater than 64 µg/mL; in the assay on Staphylococcus epidermis it was greater than 64 µg/mL; with Streptococcus faecalis (Culture Number 694), greater than 64 µg/mL; with Streptococcus pneumoniae it was greater than 64 µg/mL; with Streptococcus pyogenes, 64 µg/mL (≈ 93.5 µM). For the same compound, the “Minimum Inhibitory Concentration” value in the assay with Staphylococcus aureus (Culture Number 3665), with Staphylococcus aureus (Culture Number 6685) and with Staphylococcus aureus (Culture Number 9213) was greater than 64 µg/mL throughout.

For `CC(C)(O/N=C(\C(=O)N[C@H]1CN(C(=O)NS(=O)(=O)N[C@@H]2CN(C(=O)c3cc(=O)c(O)c[nH]3)NC2=O)C1=O)c1csc(N)n1)C(=O)O` [60(d), 3(S)-3-[2-(2-Amino-4-thiazolyl)-Z-(2)(carboxyisopropyloxyimino)-acetamido]-1-[(3-hydroxy-4-pyridon-6-yl)-1-carbonyl-pyrazolidinone-4(R)-amino]-sulfonyl-aminocarbonyl-2-azetidinone], the MIC in the assay on Acinetobacter sp. is 1 µg/mL (≈ 1.46 µM); in the assay on Citrobacter freundii, 0.06 µg/mL (≈ 0.0876 µM); in the assay on Enterobacter cloacae (Culture Number 9381, 35° C.), 4 µg/mL (≈ 5.84 µM); in the assay with Enterobacter cloacae (Culture Number 9382, 35° C.), 1 µg/mL (≈ 1.46 µM); in the assay with Escherichia coli (Culture Number 9379, 35° C.), 0.015 µg/mL (≈ 0.0219 µM); in the assay on Escherichia coli (Culture Number 9380, 35° C.), less than 0.008 µg/mL. For the same compound, the MIC in the assay on Escherichia coli (Culture Number 9451, 35° C.) was determined as 0.015 µg/mL (≈ 0.0219 µM); in the assay with Klebsiella oxytoca (Culture Number 9383, 35° C.), 0.125 µg/mL (≈ 0.183 µM); in the assay on Klebsiella oxytoca (Culture Number 9384, 35° C.) it was 0.125 µg/mL (≈ 0.183 µM); in the assay on Klebsiella pneumoniae, 0.5 µg/mL (≈ 0.73 µM); in the assay on Proteus vulgaris, 0.06 µg/mL (≈ 0.0876 µM); with Pseudomonas aeruginosa (Culture Number 231, 35° C.), 0.25 µg/mL (≈ 0.365 µM). The MIC in the assay with Pseudomonas aeruginosa (Culture Number 6676, 35° C.) is 2 µg/mL (≈ 2.92 µM); in the assay on Pseudomonas aeruginosa (Culture Number 9191, 35° C.), 0.125 µg/mL (≈ 0.183 µM); in the assay with Serratia marcescens, 0.03 µg/mL (≈ 0.0438 µM); in the assay on Staphylococcus aureus (Culture Number 9218), 64 µg/mL (≈ 93.5 µM); in the assay on Streptococcus pneumoniae, greater than 64 µg/mL; in the assay on Streptococcus pyogenes it was greater than 64 µg/mL.

In the case of `C[C@H]1[C@H](NS(=O)(=O)NC(=O)N2C[C@H](NC(=O)/C(=N\OC(C)(C)C(=O)O)c3csc(N)n3)C2=O)C(=O)NN1C(=O)c1cc(=O)c(O)c[nH]1` [60(m), 3(S)-3-[2 (2-amino-4-thiazoyl)-Z-(2)(carboxyisopropyloxyimino)-acetamido]-1-[(3-hydroxy-4-pyridon-6-yl) 1-carbonyl-5(S)-methyl-pyrazolidinone-4(S)-amino]-sulfonylaminocarbonyl-2-azetidinone], the MIC is 2 µg/mL (≈ 2.86 µM) in assay [1]; 0.03 µg/mL (≈ 0.0429 µM) in the assay on Citrobacter freundii; 8 µg/mL (≈ 11.5 µM) with Enterobacter cloacae (Culture Number 9381, 35° C.); 2 µg/mL (≈ 2.86 µM) in the assay on Enterobacter cloacae (Culture Number 9382, 35° C.); 0.03 µg/mL (≈ 0.0429 µM) in the assay on Escherichia coli (Culture Number 9379, 35° C.); less than 0.008 µg/mL in the assay on Escherichia coli (Culture Number 9380, 35° C.). For the same compound, the MIC is less than 0.008 µg/mL in the assay on Escherichia coli (Culture Number 9451, 35° C.); 0.015 µg/mL (≈ 0.0215 µM) in the assay on Escherichia coli (Culture Number 9952, 35° C.); 0.25 µg/mL (≈ 0.358 µM) in the assay on Klebsiella oxytoca (Culture Number 9383, 35° C.); 0.06 µg/mL (≈ 0.0859 µM) with Klebsiella oxytoca (Culture Number 9384, 35° C.); 0.5 µg/mL (≈ 0.716 µM) in the assay with Klebsiella pneumoniae; 0.06 µg/mL (≈ 0.0859 µM) with Proteus vulgaris. Further, the MIC is 0.125 µg/mL (≈ 0.179 µM) in the assay on Pseudomonas aeruginosa (Culture Number 231, 35° C.); 0.5 µg/mL (≈ 0.716 µM) in the assay on Pseudomonas aeruginosa (Culture Number 6676, 35° C.); 0.125 µg/mL (≈ 0.179 µM) in the assay on Pseudomonas aeruginosa (Culture Number 9191, 35° C.); 0.06 µg/mL (≈ 0.0859 µM) with Serratia marcescens; greater than 64 µg/mL in the assay with Staphylococcus aureus (Culture Number 3665); greater than 64 µg/mL in the assay on Streptococcus faecalis (Culture Number 9217). The MIC in the assay on Streptococcus pneumoniae and in the assay on Streptococcus pyogenes was greater than 64 µg/mL each time. Besides, the “Minimum Inhibitory Concentration” value in the assay with Staphylococcus aureus (Culture Number 6685), in the assay with Staphylococcus aureus (Culture Number 9213) and in the assay on Staphylococcus aureus (Culture Number 9218) was greater than 64 µg/mL each time.

For `C[C@H]1[C@@H](NS(=O)(=O)NC(=O)N2C[C@H](NC(=O)/C(=N\OC(C)(C)C(=O)O)c3csc(N)n3)C2=O)C(=O)NN1C(=O)c1cc(=O)c(O)c[nH]1` [60(p), 3(S)-3-[2-(2-amino-4-thiazoyl)-Z-(2)-(carboxyisopropyloxyimino)-acetamido]-1-[(3-hydroxy-4-pyridon-6-yl)-1-carbonyl-5(S)-methyl-pyrazolidinone-4(R)-amino]-sulfonylaminocarbonyl-2-azetidinone], the MIC in assay [1] was 1 µg/mL (≈ 1.43 µM); with Citrobacter freundii, 0.06 µg/mL (≈ 0.0859 µM); in the assay with Enterobacter cloacae (Culture Number 9381, 35° C.), 8 µg/mL (≈ 11.5 µM); in the assay on Enterobacter cloacae (Culture Number 9382, 35° C.), 2 µg/mL (≈ 2.86 µM); with Escherichia coli (Culture Number 9379, 35° C.) it was 0.03 µg/mL (≈ 0.0429 µM); in the assay with Escherichia coli (Culture Number 9380, 35° C.), 0.015 µg/mL (≈ 0.0215 µM). In addition, the MIC in the assay with Escherichia coli (Culture Number 9451, 35° C.) was found to be 0.015 µg/mL (≈ 0.0215 µM); with Escherichia coli (Culture Number 9952, 35° C.), 0.015 µg/mL (≈ 0.0215 µM); in the assay with Klebsiella oxytoca (Culture Number 9383, 35° C.), 0.125 µg/mL (≈ 0.179 µM); in the assay with Klebsiella oxytoca (Culture Number 9384, 35° C.), 0.06 µg/mL (≈ 0.0859 µM); in the assay with Klebsiella pneumoniae, 0.5 µg/mL (≈ 0.716 µM); in the assay on Proteus vulgaris it was 0.06 µg/mL (≈ 0.0859 µM). Also, the MIC in the assay on Pseudomonas aeruginosa (Culture Number 231, 35° C.) was 0.125 µg/mL (≈ 0.179 µM); with Pseudomonas aeruginosa (Culture Number 6676, 35° C.) it was 0.25 µg/mL (≈ 0.358 µM); in the assay on Pseudomonas aeruginosa (Culture Number 9191, 35° C.), 0.06 µg/mL (≈ 0.0859 µM); in the assay with Serratia marcescens, 0.06 µg/mL (≈ 0.0859 µM); with Staphylococcus aureus (Culture Number 3665), greater than 64 µg/mL; in the assay with Streptococcus faecalis (Culture Number 9217), greater than 64 µg/mL. For the same compound, the MIC with Streptococcus pneumoniae and with Streptococcus pyogenes was greater than 64 µg/mL throughout. Also, the “Minimum Inhibitory Concentration” value in the assay with Staphylococcus aureus (Culture Number 6685), with Staphylococcus aureus (Culture Number 9213) and with Staphylococcus aureus (Culture Number 9218) was greater than 64 µg/mL throughout.

The record behind these values is US5015737A, “Therapeutically useful beta-lactams” (The Upjohn Company, priority 1990, dated 1991).
